Results taken from ChEMBL document CHEMBL4000252, “Discovery of N-(2-aminoethyl)-N-benzyloxyphenyl benzamides: New potent Trypanosoma brucei inhibitors” (Bioorg Med Chem, 2017).

Experiments:
[1] = tested on: Trypanosoma brucei brucei; assay: Antiparasitic activity against Trypanosoma brucei brucei BF427 assessed as growth inhibition after 48 hrs by Alamar blue assay; type: functional; details: BF427, 48 h
[2] = tested on: HepG2; assay: Cytotoxicity against human HepG2 cells assessed as growth inhibition after 48 hrs by Alamar blue assay; type: cell-based; details: hepg2, 48 h
[3] = Cytotoxicity against human CRL8155 cells assessed as growth inhibition after 48 hrs by Alamar blue assay; type: cell-based; details: crl8155, 48 h
[4] = biological target: Cytochrome P450 3A4 (Homo sapiens, UniProt P08684); assay: Inhibition of human CYP3A4; type: ADME
Cytochrome P450 3A4, sequence (P08684 whole entry): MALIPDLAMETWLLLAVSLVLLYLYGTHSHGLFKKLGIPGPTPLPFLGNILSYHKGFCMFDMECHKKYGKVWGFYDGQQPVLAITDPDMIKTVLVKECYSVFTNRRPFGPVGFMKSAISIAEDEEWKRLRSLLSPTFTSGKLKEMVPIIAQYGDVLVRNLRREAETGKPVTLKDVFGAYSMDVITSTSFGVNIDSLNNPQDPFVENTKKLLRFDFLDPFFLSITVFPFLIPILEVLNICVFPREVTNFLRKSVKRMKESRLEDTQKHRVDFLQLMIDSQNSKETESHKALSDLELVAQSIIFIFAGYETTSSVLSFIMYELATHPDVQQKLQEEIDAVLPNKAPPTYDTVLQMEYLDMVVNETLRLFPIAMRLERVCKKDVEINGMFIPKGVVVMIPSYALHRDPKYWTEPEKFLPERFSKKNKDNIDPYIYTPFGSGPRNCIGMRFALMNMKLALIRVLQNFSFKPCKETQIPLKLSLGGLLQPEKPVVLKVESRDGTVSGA

[5] = Ratio of drug level in brain to plasma in mouse at 5 mg/kg, ip after 1 hr by LC-MS analysis; type: ADME, organism-based
[6] = tested on: Trypanosoma brucei rhodesiense; assay: Antiparasitic activity against Trypanosoma brucei rhodesiense STIB900 infected in Swiss-Webster mouse assessed as cure rate at 50 mg/kg, bid administered via oral gavage from day 2 to 5 post infection measured after 60 days by microscopic method relative to control; type: functional
[7] = Cmax in mouse at 50 mg/kg, po by LC-MS analysis; type: ADME, organism-based; parameters: dose 50 mg/kg, route oral; details: in vivo
[8] = AUC (0 to 8 hrs) in mouse at 50 mg/kg, po by LC-MS analysis; type: ADME, organism-based; parameters: dose 50 mg/kg, time < 8 hr, route oral; details: in vivo
[9] = tested on: Liver; assay: Half life in human liver microsomes at 1.5 uM by LC-MS analysis; type: ADME, microsome

Row | SMILES | EC50 [1] | further results
1 | O=C(c1ccc(Cl)cc1Cl)N(c1ccc(Cl)cc1)C1CCNC1 (stereo unspecified) | 4.47 µM | –
2 | Cc1cc(C)cc(COc2ccc(N(CCN)C(=O)c3cccnc3C(F)(F)F)cc2)c1 | 0.003 µM | CC50 [2]: 6.46 µM; CC50 [3]: 4.74 µM
3 | NCCN(C(=O)c1cccc(Cl)c1Cl)c1ccc(Cl)cc1 | 0.31 µM | –
4 | NCCN(C(=O)c1ccc(Cl)cc1Cl)c1ccc(OCc2cccc(Cl)c2)cc1 | 0.043 µM | CC50 [2]: 3.78 µM; CC50 [3]: 2.38 µM
5 | NCCN(C(=O)c1cccnc1Cl)c1ccc(OCc2ccc(Cl)cc2)cc1 | 0.03 µM | CC50 [2]: 15.2 µM; CC50 [3]: 11.5 µM
6 | NCCN(C(=O)c1c(Cl)cc(Cl)cc1Cl)c1ccc(Cl)cc1 | 0.23 µM | CC50 [2]: 21.5 µM; CC50 [3]: 8.5 µM
7 | O=C(c1ccc(Cl)cc1Cl)N(CCN1CCOCC1)c1ccc(Cl)cc1 | > 10 µM | –
8 | NCCN(C(=O)c1ccc(Cl)cc1Cl)c1ccc(Cl)cc1 | 0.31 µM | CC50 [2]: 14.2 µM; IC50 [4]: 0.07 µM; CC50 [3]: 12.5 µM
9 | Cc1ccc(C(=O)N(CCN)c2ccc(Cl)cc2)c(C)c1 | 0.97 µM | –
10 | NCCN(C(=O)c1ccc(Cl)cc1Cl)c1ccc(F)c(Cl)c1 | 2.72 µM | –
11 | CC(C)c1ccc(COc2ccc(N(CCN)C(=O)c3ccccc3C(F)(F)F)cc2)cc1 | 0.003 µM | CC50 [2]: 3.99 µM; CC50 [3]: 2.22 µM
12 | Cc1ccccc1C(=O)N(CCN)c1ccc(Cl)cc1 | 0.52 µM | –
13 | N#CCN(C(=O)c1ccc(Cl)cc1Cl)c1ccc(Cl)cc1 | > 10 µM | –
14 | NCCN(C(=O)c1ccc(Cl)cc1Cl)c1ccc(Oc2cccc(Cl)c2)cc1 | 0.28 µM | –
15 | NCCN(C(=O)c1ccc(Cl)cc1Cl)c1ccc(Oc2ccc(Cl)cc2)cc1 | 0.17 µM | –
16 | COc1ccc(C(=O)N(CCN)c2ccc(Cl)cc2)c(OC)c1 | 4.82 µM | –
17 | NCCN(C(=O)c1c(Cl)cccc1Cl)c1ccc(Cl)cc1 | 0.78 µM | CC50 [2]: > 50 µM; CC50 [3]: > 50 µM
18 | Cc1ccc(C(=O)N(CCN)c2ccc(Cl)cc2)cc1 | 7 µM | –
19 | NCCN(C(=O)c1cccnc1C(F)(F)F)c1ccc(OCc2ccc(Cl)cc2)cc1 | 0.003 µM | CC50 [2]: 10.2 µM; CC50 [3]: 8.01 µM
20 | NCCN(C(=O)c1ccc(Cl)cc1Cl)c1ccc(-c2ccccc2)cc1 | 1.83 µM | –
21 | CNCCN(C(=O)c1ccc(Cl)cc1Cl)c1ccc(Cl)cc1 | 1.65 µM | –
22 | CC(C)(C)c1ccc(COc2ccc(N(CCN)C(=O)c3ccc(Cl)cc3Cl)cc2)cc1 | 0.005 µM | CC50 [2]: 3.83 µM; CC50 [3]: 2.12 µM
23 | NCCN(C(=O)c1ccc(F)cc1F)c1ccc(Cl)cc1 | 1.24 µM | –

Row | SMILES | EC50 [1] | further results
24 | NCCN(C(=O)c1c(F)c(F)c(F)c(F)c1F)c1ccc(Cl)cc1 | 0.54 µM | –
25 | NCCN(C(=O)c1ccc(Cl)c([N+](=O)[O-])c1)c1ccc(Cl)cc1 | 2.9 µM | –
26 | COc1cc(N(CCN)C(=O)c2ccc(Cl)cc2Cl)ccc1Cl | 4.52 µM | –
27 | NCCN(C(=O)c1ccc(F)cc1)c1ccc(Cl)cc1 | 4.01 µM | –
28 | CC(N)CN(C(=O)c1ccc(Cl)cc1Cl)c1ccc(Cl)cc1 (stereo unspecified) | 1.05 µM | –
29 | NCCN(C(=O)c1cccc(Cl)c1)c1ccc(Cl)cc1 | 1.2 µM | –
30 | Cc1cc(C)cc(COc2ccc(N(CCN)C(=O)c3ccc(F)cc3C(F)(F)F)cc2)c1 | 0.005 µM | CC50 [2]: 4.53 µM; CC50 [3]: 2.24 µM
31 | O=C(c1ccc(Cl)cc1Cl)N(Cc1cnc[nH]1)c1ccc(Cl)cc1 | > 10 µM | –
32 | NCCN(C(=O)c1ccccc1C(F)(F)F)c1ccc(Cl)cc1 | 0.33 µM | –
33 | NCCCN(C(=O)c1ccc(Cl)cc1Cl)c1ccc(Cl)cc1 | 2.9 µM | –
34 | NCCN(C(=O)c1ccc(Cl)cc1Cl)c1cccc(Cl)c1 | 3.05 µM | –
35 | NCCN(C(=O)c1ccc(Cl)cc1Cl)c1ccc(Oc2ccccc2Cl)cc1 | 3.6 µM | –
36 | NCCN(C(=O)c1ccc(F)cc1C(F)(F)F)c1ccc(Cl)cc1 | 0.18 µM | CC50 [2]: 37.7 µM; CC50 [3]: 42.3 µM
37 | O=C(c1ccc(Cl)cc1Cl)N(c1ccc(Cl)cc1)c1cccnc1 | > 10 µM | –
38 | NCCN(C(=O)c1cc(Cl)cc(Cl)c1)c1ccc(Cl)cc1 | 1.08 µM | –
39 | NCCN(C(=O)c1ccc(Cl)cc1Cl)c1ccc(Cl)c(Cl)c1 | 1.68 µM | –
40 | NCCN(C(=O)c1ccccc1)c1ccc(Cl)cc1 | 13 µM | –
41 | Cc1ccc(N(CCN)C(=O)c2ccc(Cl)cc2Cl)cc1 | 1.52 µM | CC50 [3]: 24.9 µM
42 | CC(=O)NCCN(C(=O)c1ccc(Cl)cc1Cl)c1ccc(Cl)cc1 | > 10 µM | –
43 | COc1ccc(C(=O)N(CCN)c2ccc(Cl)cc2)cc1 | > 10 µM | –
44 | CC(CN)N(C(=O)c1ccc(Cl)cc1Cl)c1ccc(Cl)cc1 (stereo unspecified) | 3.56 µM | –
45 | NCCN(C(=O)c1ccc(Cl)cc1Cl)c1ccc([N+](=O)[O-])cc1 | > 10 µM | –
46 | NCCN(C(=O)c1cc(Cl)ccc1Cl)c1ccc(Cl)cc1 | 0.6 µM | –

Row | SMILES | EC50 [1] | further results
47 | O=C(c1ccc(Cl)cc1Cl)N(Cc1ccco1)c1ccc(Cl)cc1 | > 10 µM | –
48 | CC(C)c1ccc(COc2ccc(N(CCN)C(=O)c3ccccc3Br)cc2)cc1 | 0.001 µM | CC50 [3]: 1.91 µM
49 | NCCN(C(=O)c1cc([N+](=O)[O-])ccc1Cl)c1ccc(Cl)cc1 | 1.2 µM | –
50 | CC(C)c1ccc(COc2ccc(N(CCN)C(=O)c3ccc(F)cc3C(F)(F)F)cc2)cc1.Cl | 0.002 µM | CC50 [2]: 3.66 µM; BPR [5]: 0.22; CC50 [3]: 2.83 µM; Activity [6]: 33%; Cmax [7]: 1780 nM; AUC(0-t) at 8 h [8]: 11.1 µM·h; t1/2 [9]: 52 min
51 | CC(C)c1ccc(N(CCN)C(=O)c2ccc(Cl)cc2Cl)cc1 | 3.89 µM | –
52 | CN(C)CCN(C(=O)c1ccc(Cl)cc1Cl)c1ccc(Cl)cc1 | > 10 µM | –
53 | CC(C)c1ccc(COc2ccc(N(CCN)C(=O)c3ccccc3[N+](=O)[O-])cc2)cc1 | 0.001 µM | CC50 [3]: 3.03 µM
54 | NCCN(C(=O)c1ccc(Cl)cc1Cl)c1ccc(Br)cc1 | 0.33 µM | CC50 [2]: 11 µM; CC50 [3]: 11.5 µM
55 | Cc1cc(C)cc(COc2ccc(N(CCN)C(=O)c3ccccc3C(F)(F)F)cc2)c1.Cl | 0.01 µM | CC50 [2]: 3.94 µM; BPR [5]: 0.96; CC50 [3]: 2.94 µM; Activity [6]: 33%; Cmax [7]: 1010 nM; AUC(0-t) at 8 h [8]: 6.51 µM·h; t1/2 [9]: > 60 min
56 | NCCN(C(=O)c1cccnc1C(F)(F)F)c1ccc(Cl)cc1 | 0.59 µM | –
57 | O=C(c1ccc(Cl)cc1Cl)N(CCO)c1ccc(Cl)cc1 | > 10 µM | –
58 | O=C(c1ccc(Cl)cc1Cl)N(Cc1ncc[nH]1)c1ccc(Cl)cc1 | > 10 µM | –
59 | NCCN(C(=O)c1cccc(F)c1)c1ccc(Cl)cc1 | 4.03 µM | –
60 | CCc1ccc(COc2ccc(N(CCN)C(=O)c3ccc(Cl)cc3Cl)cc2)cc1 | 0.015 µM | CC50 [2]: 5.6 µM; CC50 [3]: 2.59 µM
61 | NCCN(C(=O)c1ccc(Cl)cc1)c1ccc(Cl)cc1 | 3.12 µM | –
62 | NCCN(C(=O)c1ccc(Cl)cc1Cl)c1cccc(Oc2ccc(Cl)cc2)c1 | 2.13 µM | –
63 | O=C(c1ccc(Cl)cc1Cl)N(Cc1cccs1)c1ccc(Cl)cc1 | > 10 µM | –
64 | NCCN(C(=O)c1ccc(Cl)cc1Cl)c1ccc(N)cc1 | > 10 µM | CC50 [3]: 11 µM
65 | NCCN(C(=O)c1ccccc1Cl)c1ccc(Cl)cc1 | 0.44 µM | CC50 [2]: > 50 µM; CC50 [3]: > 50 µM
66 | NCCN(C(=O)c1ccc(Cl)cc1Cl)c1ccc(Cl)cc1Cl | 0.51 µM | –
67 | O=C(c1ccc(Cl)cc1Cl)N(c1ccc(Cl)cc1)C1CCCNC1 (stereo unspecified) | > 10 µM | –
68 | NC(=O)CCN(C(=O)c1ccc(Cl)cc1Cl)c1ccc(Cl)cc1 | > 10 µM | –
69 | COc1ccccc1C(=O)N(CCN)c1ccc(Cl)cc1 | 2.51 µM | –
